# According to patent US5847092A (Zambon Group S.p.A., priority 1994, dated 1998):
# Read-outs that look alike come from different tables or passages of the source.
# Key:
# [1] = test system: Streptococcus pyogenes C 203; assay: In vivo antibacterial activity, experimental pulmonary infection in mouse; conditions: Streptococcus pyogenes, C203, ip, 240 h, intraperitoneal single dose, read-out: average protecting dose PD50
# Method: The in vivo antibacterial activity of the compounds of formula (I), expressed as average protecting dose PD50 (mg/Kg), was evaluated by means of experimental pulmonary infection induced in mouse by Streptococcus pyogenes (example 23).
# b) In vivo antibacterial activity
# The therapeutical effectiveness, expressed as average protecting dose (PD50), of the considered compounds of formula (I) was evaluated by experimental pulmonary infection induced in mouse by Streptococcus pyogenesC 203.
# Charles River albin mice (strain CD 1), of body weight comprised between 23-35 g, stabulated in groups of 6 for cage and normo-feeded with standard diet and water ad libitum were used. A suspension of S. pyogenes C 203 (corresponding about to 10^8 UFC) in tryptose broth (0.05 ml) was intranasally administered to each mouse anesthesized with a mixture of ethyl ether and chloroform.
# The compounds under examination were intraperitoneally administered as a single dose, in 0.2% Tween suspension, 24 hours before or 1 hour after the infection.
# Mice mortality observation was prolonged up to 10 days from the infection.
# PD50 calculation, expressed as (mg/Kg), was carried out through the analysis of probit.
# In vivo antibacterial activity, expressed as average protecting dose PD50 (mg/Kg), 24 hours before and 1 hour after the experimental pulmonary infection induced in mouse by Streptococcus pyogenes C 203, of the compounds 4, 10, 16-19, 21, 23, 26-27, 29-30, 33-35 and 38 and of the reference compounds Roxithromycin and Clarithromycin.
# [2] = test system: Staphylococcus aureus PV 14; assay: In vitro antibacterial activity, MIC, broth microdilution; format: cell-based; conditions: Staphylococcus aureus, PV14; S. aureus PV 14; MHB; 37° C., 18 hours; read-out: minimum inhibiting concentration MIC
# Method: (§1) a) In vitro antibacterial activity The determination of the minimum inhibiting concentrations (MIC), with respect to Gram-positive and Gram-negative bacteria was carried out through the micromethod of gradual broth dilution in double series [National Committee for Clinical Laboratory Standards, 1990; Methods for dilution antimicrobial susceptibility tests for bacteria that grow aerobically; Approved standards […], Villanova, Pa.], by using Mueller Hinton Broth (MHB) as a culture medium. In the case of […] bacteria, horse serum at 5% (Streptococcus pneumoniae and Streptococcus pyogenes) was added to the medium. Roxithromycin and Clarithromycin [The Merck Index, XI Ed., No. 8253 and 2340, respectively] were used as reference macrolides. MIC, expressed as (μg/ml), were determined after incubation of the microplates at 37° C. for 18 hours, evaluating the lowest antibiotic concentration enabling the inhibition of bacterial development.
# [3] = test system: Escherichia coli ATCC 25922; assay: as above; format: cell-based; conditions: Escherichia coli, ATCC25922; E. coli ATCC 25922; MHB; 37° C., 18 hours; read-out: minimum inhibiting concentration MIC
# Method: as §1
# [4] = test system: Streptococcus pneumoniae BS 4; assay: as above; format: cell-based; conditions: Streptococcus pneumoniae, BS4; S. pneumoniae BS 4; MHB + 5% horse serum; 37° C., 18 hours; read-out: minimum inhibiting concentration MIC
# Method: as §1
# [5] = test system: Streptococcus pyogenes A 26; assay: as above; format: cell-based; conditions: Streptococcus pyogenes, A26; S. pyogenes A 26; MHB + 5% horse serum; 37° C., 18 hours; read-out: minimum inhibiting concentration MIC
# Method: as §1
# [6] = test system: Klebsiella pneumoniae ZC 2; assay: as above; format: cell-based; conditions: Klebsiella pneumoniae, ZC2; K. pneumoniae ZC 2; MHB; 37° C., 18 hours; read-out: minimum inhibiting concentration MIC
# Method: as §1
# [7] = test system: Streptococcus pneumoniae BS 3; assay: as above; format: cell-based; conditions: Streptococcus pneumoniae, BS3; S. pneumoniae BS 3; MHB + 5% horse serum; 37° C., 18 hours; read-out: minimum inhibiting concentration MIC
# Method: as §1
# [8] = test system: Streptococcus pyogenes C 203; assay: as above; format: cell-based; conditions: Streptococcus pyogenes, C203; S. pyogenes C 203; MHB + 5% horse serum; 37° C., 18 hours; read-out: minimum inhibiting concentration MIC
# Method: as §1
# [9] = test system: Enterococcus faecalis ATCC 29212; assay: as above; format: cell-based; conditions: Enterococcus faecalis, ATCC29212; E. faecalis ATCC 29212; MHB; 37° C., 18 hours; read-out: minimum inhibiting concentration MIC
# Method: as §1
MIC [2] [µg/mL],MIC [3] [µg/mL],MIC [4] [µg/mL],MIC [5] [µg/mL],MIC [6] [µg/mL],MIC [7] [µg/mL],MIC [8] [µg/mL],MIC [9] [µg/mL],Compound,ED50 ([1]; 1 hour after infection) [mg/kg],ED50 ([1]; 24 hours before infection) [mg/kg]
0.5,4,0.0312,0.0625,16,0.0625,0.0156,2,"CC[C@H]1OC(=O)[C@H](C)[C@@H](O[C@H]2C[C@@](C)(OC)[C@@H](O)[C@H](C)O2)[C@H](C)[C@@H](O[C@@H]2O[C@H](C)C[C@H](N(C)C)[C@H]2O)[C@](C)(O)C[C@@H](C)/C(=N\OCCNCCCCCCNCc2cc(Cl)cc(Cl)c2O)[C@H](C)[C@@H](O)[C@]1(C)O [Compound 32, Erythromycin A (E)-9-[0-[2-[6-[(3,5-dichloro-2-hydroxyphenyl)methylamino]hexylamino]ethyl]oxime]]",,
0.5,4,0.0312,0.0312,16,0.0312,0.0039,8,"CC[C@H]1OC(=O)[C@H](C)[C@@H](O[C@H]2C[C@@](C)(OC)[C@@H](O)[C@H](C)O2)[C@H](C)[C@@H](O[C@@H]2O[C@H](C)C[C@H](N(C)C)[C@H]2O)[C@](C)(O)C[C@@H](C)/C(=N\OCCNCCCCCCNCc2ccc([N+](=O)[O-])c(O)c2)[C@H](C)[C@@H](O)[C@]1(C)O [Compound 37, Erythromycin A (E)-9-[0-[2-[6-[(3-hydroxy-4-nitrophenyl)methylamino]hexylamino]ethyl]oxime]]",,
0.25,8,0.5,0.0625,32,0.25,0.0312,16,"CC[C@H]1OC(=O)[C@H](C)[C@@H](O[C@H]2C[C@@](C)(OC)[C@@H](O)[C@H](C)O2)[C@H](C)[C@@H](O[C@@H]2O[C@H](C)C[C@H](N(C)C)[C@H]2O)[C@](C)(O)C[C@@H](C)/C(=N\OCCCNCCCCCCNCc2ccccc2)[C@H](C)[C@@H](O)[C@]1(C)O [Compound 12, Erythromycin A (E)-9-[0-[3-[6-(phenylmethylamino)hexylamino]propyl]oxime]]",,
0.125,8,0.25,0.125,16,0.25,0.0312,8,"CC[C@H]1OC(=O)[C@H](C)[C@@H](O[C@H]2C[C@@](C)(OC)[C@@H](O)[C@H](C)O2)[C@H](C)[C@@H](O[C@@H]2O[C@H](C)C[C@H](N(C)C)[C@H]2O)[C@](C)(O)C[C@@H](C)/C(=N\OCCNCCCCCCNCc2cccc(O)c2)[C@H](C)[C@@H](O)[C@]1(C)O [Compound 25, Erythromycin A (E)-9-[0-[2-[6-[(3-hydroxyphenyl)methylamino]hexylamino]ethyl]oxime]]",,
0.25,4,0.0156,0.0156,8,0.0078,0.0039,4,"CC[C@H]1OC(=O)[C@H](C)[C@@H](O[C@H]2C[C@@](C)(OC)[C@@H](O)[C@H](C)O2)[C@H](C)[C@@H](O[C@@H]2O[C@H](C)C[C@H](N(C)C)[C@H]2O)[C@](C)(O)C[C@@H](C)/C(=N\OCCNCCCCCCNCc2ccccc2O)[C@H](C)[C@@H](O)[C@]1(C)O [Compound 24, Erythromycin A (E)-9-[0-[2-[6-[(2-hydroxyphenyl)methylamino]hexylamino]ethyl]oxime]]",,
0.5,8,0.0625,0.0625,32,0.0625,0.0078,16,"CC[C@H]1OC(=O)[C@H](C)[C@@H](O[C@H]2C[C@@](C)(OC)[C@@H](O)[C@H](C)O2)[C@H](C)[C@@H](O[C@@H]2O[C@H](C)C[C@H](N(C)C)[C@H]2O)[C@](C)(O)C[C@@H](C)/C(=N\OCCNCCCCCCNCc2ccc(O)c([N+](=O)[O-])c2)[C@H](C)[C@@H](O)[C@]1(C)O [Compound 36, Erythromycin A (E)-9-[0-[2-[6-[(4-hydroxy-3-nitrophenyl)methylamino]hexylamino]ethyl]oxime]]",,
0.25,4,0.0312,0.0312,16,0.0156,0.0156,8,"CC[C@H]1OC(=O)[C@H](C)[C@@H](O[C@H]2C[C@@](C)(OC)[C@@H](O)[C@H](C)O2)[C@H](C)[C@@H](O[C@@H]2O[C@H](C)C[C@H](N(C)C)[C@H]2O)[C@](C)(O)C[C@@H](C)/C(=N\OCCCCCCNCCCCCCNCc2ccccc2)[C@H](C)[C@@H](O)[C@]1(C)O [Compound 6, Erythromycin A (E)-9-[0-[6-[6-(phenylmethylamino)hexylamino]hexyl]oxime]]",,
0.25,4,0.0078,0.0078,16,0.0078,0.0039,4,"CC[C@H]1OC(=O)[C@H](C)[C@@H](O[C@H]2C[C@@](C)(OC)[C@@H](O)[C@H](C)O2)[C@H](C)[C@@H](O[C@@H]2O[C@H](C)C[C@H](N(C)C)[C@H]2O)[C@](C)(O)C[C@@H](C)/C(=N\OCCNCCCCCCCCNCc2ccccc2)[C@H](C)[C@@H](O)[C@]1(C)O [Compound 9, Erythromycin A (E)-9-[0-[2-[8-(phenylmethyiamino)octylamino]ethyl]oxime]]",,
0.5,8,0.5,0.0625,16,0.25,0.0312,16,"CC[C@H]1OC(=O)[C@H](C)[C@@H](O[C@H]2C[C@@](C)(OC)[C@@H](O)[C@H](C)O2)[C@H](C)[C@@H](O[C@@H]2O[C@H](C)C[C@H](N(C)C)[C@H]2O)[C@](C)(O)C[C@@H](C)/C(=N\OCCCCCNCCCCCCNCc2ccccc2)[C@H](C)[C@@H](O)[C@]1(C)O [Compound 11, Erythromycin A (E)-9-[0-[5-[6-(phenylmethylamino)hexylamino]pentyl]oxime]]",,

Compound,MIC [2] [µg/mL],MIC [3] [µg/mL],MIC [4] [µg/mL],MIC [5] [µg/mL],MIC [6] [µg/mL],MIC [7] [µg/mL],MIC [8] [µg/mL],MIC [9] [µg/mL],ED50 ([1]; 1 hour after infection) [mg/kg],ED50 ([1]; 24 hours before infection) [mg/kg]
"CC[C@H]1OC(=O)[C@H](C)[C@@H](O[C@H]2C[C@@](C)(OC)[C@@H](O)[C@H](C)O2)[C@H](C)[C@@H](O[C@@H]2O[C@H](C)C[C@H](N(C)C)[C@H]2O)[C@](C)(O)C[C@@H](C)/C(=N\OCCNCCCCCCNCc2ccc(Oc3ccccc3)cc2)[C@H](C)[C@@H](O)[C@]1(C)O [Compound 29, Erythromycin A (E)-9-[0-[2-[6-[(4-phenoxyphenyl)methylamino]hexylamino]ethyl]oxime]]",0.5,1,0.0156,0.0312,2,0.0078,0.0039,1,7.65,6.1
"CC[C@H]1OC(=O)[C@H](C)[C@@H](O[C@H]2C[C@@](C)(OC)[C@@H](O)[C@H](C)O2)[C@H](C)[C@@H](O[C@@H]2O[C@H](C)C[C@H](N(C)C)[C@H]2O)[C@](C)(O)C[C@@H](C)/C(=N\OCCNCCCCCCNCc2cccc([N+](=O)[O-])c2)[C@H](C)[C@@H](O)[C@]1(C)O [Compound 34, Erythromycin A (E)-9-[0-[2-[6-[(3-nitrophenyl)methylamino]hexylamino]ethyl]oxime]]",0.25,1,0.0039,0.0078,8,0.0019,0.0039,1,1.88,6.8
